BindingDB's records for patent US10150764 (Epizyme, 2018)
pIC50: −log10 of the molar value.

Legend:
[1] = molecular target: Histone-lysine N-methyltransferase EZH2 [Y641F] (Homo sapiens, UniProt Q15910, Y641F); experiment: Wild-Type PRC2 Enzyme Assay
Description: (§1) The assays were performed in a buffer consisting of 20 mM bicine (pH=7.6), 0.5 mM DTT, 0.005% BSG, 100 mM KCl and 0.002% Tween20, prepared on the day of use. […] DMSO (1 μL) was added to columns 11, 12, 23, 24, rows A-H for the maximum signal control, and SAH, a known product and inhibitor of PRC2 (1 μL) was added to columns 11, 12, 23, 24, rows I-P for the minimum signal control. A cocktail (40 μL) containing the wild-type PRC2 enzyme and chicken erythrocyte oligonucleosome was added by Multidrop Combi (Thermo). The compounds were allowed to incubate with PRC2 for 30 min at 25° C., then a cocktail (10 μL) containing a mixture of non-radioactive and 3H-SAM was added to initiate the reaction (final volume=51 μL). […] The assay was stopped by the addition of non-radioactive SAM (10 μL) to a final concentration of 600 μM, which dilutes the 3H-SAM to a level where its incorporation into the chicken erythrocyte olignonucleosome substrate is no longer detectable. […] The plates were then read in a PerkinElmer TopCount platereader to measure the quantity of 3H-labeled chicken erythrocyte oligonucleosome bound to the Flashplate surface, measured as disintegrations per minute (dpm) or alternatively, referred to as counts per minute (cpm).

[2] = molecular target: Histone-lysine N-methyltransferase EZH2 (Homo sapiens, UniProt Q15910); experiment: Wild-Type PRC2 Enzyme Assay
Chain of Histone-lysine N-methyltransferase EZH2 (Q15910 whole entry): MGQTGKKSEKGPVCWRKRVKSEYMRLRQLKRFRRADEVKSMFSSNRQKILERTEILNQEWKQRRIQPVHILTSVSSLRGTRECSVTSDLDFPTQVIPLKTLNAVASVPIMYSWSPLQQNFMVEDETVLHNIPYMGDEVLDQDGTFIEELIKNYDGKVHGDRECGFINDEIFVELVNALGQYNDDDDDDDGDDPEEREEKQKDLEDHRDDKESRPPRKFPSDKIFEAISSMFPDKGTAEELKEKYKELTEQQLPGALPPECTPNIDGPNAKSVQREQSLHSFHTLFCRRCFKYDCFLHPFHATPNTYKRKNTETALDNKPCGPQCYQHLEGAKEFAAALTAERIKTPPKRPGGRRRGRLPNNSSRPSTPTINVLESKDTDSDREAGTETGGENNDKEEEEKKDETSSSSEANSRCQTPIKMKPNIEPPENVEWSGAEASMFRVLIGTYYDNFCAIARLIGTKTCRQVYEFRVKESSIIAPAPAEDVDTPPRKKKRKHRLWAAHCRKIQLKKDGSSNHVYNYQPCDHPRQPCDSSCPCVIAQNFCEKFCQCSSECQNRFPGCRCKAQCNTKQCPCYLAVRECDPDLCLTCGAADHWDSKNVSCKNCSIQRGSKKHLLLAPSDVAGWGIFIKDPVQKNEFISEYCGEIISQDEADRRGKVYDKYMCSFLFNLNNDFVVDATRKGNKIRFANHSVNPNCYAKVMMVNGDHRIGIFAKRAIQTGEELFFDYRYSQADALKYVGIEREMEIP
Description: as §1

Chain of Histone-lysine N-methyltransferase EZH2 [Y641F] (Q15910 whole entry Y641F): as the sequence (Q15910 whole entry) above, with Y641F counted along it

pIC50 [1]: 5.08 | pIC50 [2]: 4.82
Structure (SMILES): CCN(c1cc(Cl)cc(C(=O)NCc2c(C)cc3cc[nH]n3c2=O)c1C)[C@H]1CC[C@H](N(C)C)CC1 [US10150764, Compound 2]
